Assay results as given in PubChem BioAssay (NCI).
Several values for one entry are separate records, joined by “and”; a condition that tells them apart may be missing. Identical values can stand only once.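 Assay format: 96-well plates, 48-hour exposure. GI50 marks 50% less growth. The concentration for full growth arrest is given as TGI.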

Tests used:
Experiment in all cases: DTP human tumour cell line panel, 48 h
HCT-15 colon = tested on: HCT-15 colon
NCI/ADR-RES ovarian = tested on: NCI/ADR-RES ovarian
SF-268 CNS = tested on: SF-268 CNS
A498 renal = tested on: A498 renal
RPMI-8226 leukemia = tested on: RPMI-8226 leukemia
HOP-62 NSCLC = tested on: HOP-62 NSCLC
UO-31 renal = tested on: UO-31 renal
RXF 393 renal = tested on: RXF 393 renal
A549 NSCLC = tested on: A549 NSCLC
SNB-75 CNS = tested on: SNB-75 CNS

Row | SMILES | TGI (HCT-15 colon) | TGI (NCI/ADR-RES ovarian) | TGI (SF-268 CNS) | TGI (A498 renal) | TGI (RPMI-8226 leukemia) | TGI (HOP-62 NSCLC) | TGI (UO-31 renal) | TGI (RXF 393 renal) | TGI (A549 NSCLC) [µM] | TGI (SNB-75 CNS) | GI50 (HCT-15 colon) [µM] | GI50 (NCI/ADR-RES ovarian) [µM] | GI50 (SF-268 CNS) [µM] | GI50 (A498 renal) [µM] | GI50 (RPMI-8226 leukemia) [µM] | GI50 (HOP-62 NSCLC) [µM] | GI50 (UO-31 renal) [µM] | GI50 (RXF 393 renal) [µM] | GI50 (SNB-75 CNS) [µM] | GI50 (A549 NSCLC) [µM]
1 | O=c1c(-c2ccccc2)c[nH]c2cc([N+](=O)[O-])c(/C(Cl)=C/c3ccccc3)cc12 | > 47.1 µM | 25.5 µM | 16.7 µM | 35.4 µM | 9.98 µM | 52 µM | 36.8 µM | 29.5 µM | 19.6 | 24.1 µM | – | – | – | – | – | – | – | – | – | –
2 | C[Si](C)(C)C#C[I+]c1ccccc1 | 56.1 µM | – | > 100 µM | > 100 µM | – | > 100 µM | > 100 µM | > 100 µM | > 100 | > 100 µM | – | – | – | – | – | – | – | – | – | –
3 | COc1cc(-c2ccc(-c3ccc(C(=N)N)s3)s2)cc(OC)c1OC | 4.51 µM | 12.9 µM | 3.49 µM | 5.83 µM | 5.72 µM | 3.97 µM | 3.54 µM | 3.39 µM | – | 2.93 µM | 1.91 | 3.44 | 1.74 | 2.25 | 2.46 | 1.97 | 1.74 | 1.66 | 1.5 | –
4 | O=C(CCN1CCCC1)Nc1ccc2c(NCCCCc3ccccc3)c3ccccc3nc2c1 | 3.1 µM | 59.4 µM | – | 2.82 µM | 0.837 µM | – | 2.92 µM | 2.18 µM | – | 2.65 µM | 1.62 | 11.3 | – | 1.43 | 0.258 | – | 1.55 | 0.802 | 1.33 | –
5 | Cc1c2cc[n+](C)cc2c(C)c2c1[nH]c1ccc(O)cc12 | > 100 µM | > 100 µM | 23.7 µM | 99.4 µM | > 100 µM | 35 µM | 86.8 µM | > 100 µM | 99.3 | 25.7 µM | – | – | – | – | – | – | – | – | – | –
6 | CCOC(=O)c1c(NC(=S)NCc2ccccc2)sc2c1CCN(C)C2 | > 100 µM | > 100 µM | > 100 µM | > 100 µM | > 100 µM | > 100 µM | > 100 µM | – | > 100 | – | – | – | – | – | – | – | – | – | – | –
7 | Cc1c2cc[n+](C)cc2c(COC2OC(CO)C(O)C2O)c2c3ccccc3n(C)c12 (stereo unspecified) | > 100 µM | > 100 µM | > 97 µM | > 100 µM | > 100 µM | > 74.2 µM | > 100 µM | > 100 µM | > 100 | 92.4 µM | – | – | – | – | – | – | – | – | – | –
8 | COc1cc2c(cc1-c1c(C)noc1C)ncc1nc(C3CCCCC3)n(C3CCC(OC(F)F)CC3)c12 (stereo unspecified) | – | – | > 100 µM | – | – | > 100 µM | – | 3.99 µM | > 100 | > 100 µM | – | – | 5.05 | – | – | 1.97 | – | 1.33 | 0.511 | 2.89
9 | NC(=O)c1cc2ccccc2c(N=Nc2ccccc2)c1O | > 100 µM | > 100 µM | > 100 µM | > 100 µM | > 100 µM | > 100 µM | > 100 µM | > 100 µM | > 100 | > 100 µM | – | – | – | – | – | – | – | – | – | –
10 | CC(=O)OC1CC2(O)C(CCC3(C)C(c4ccc(=O)oc4)CCC32O)C2(C)CCC(O)C=C12 (stereo unspecified) | 0.209 µM and 0.147 µM | 0.143 µM and 0.255 µM | 0.149 µM and 0.0437 µM | 0.31 µM and 0.176 µM | 0.134 µM and 0.0803 µM | 0.105 µM and 0.048 µM | 0.131 µM and 0.095 µM | 0.027 µM and 0.0399 µM | 0.0272 | 0.188 µM and 0.116 µM | 0.0375 | 0.0375 | 0.00796 | – | 0.0375 | 0.0123 | 0.0667 | 0.00624 | 0.0375 | 0.00624
11 | N#Cc1ccc(Nc2nc3nc[nH]c3c(=O)[nH]2)cc1 | > 100 µM | > 100 µM | > 100 µM | > 100 µM | > 100 µM | > 100 µM | > 100 µM | – | > 100 | > 100 µM | – | – | – | – | – | – | – | – | – | –
12 | CC(=O)O[C@H]1C(=O)[C@]2(C)[C@@H](OC(=O)OCC(O)CO)C[C@H]3OC[C@@]3(OC(C)=O)[C@H]2[C@H](OC(=O)c2ccccc2)[C@]2(O)C[C@H](OC(=O)[C@H](O)[C@@H](NC(=O)c3ccccc3)c3ccccc3)C(C)=C1C2(C)C (stereo partly specified) | 10.9 µM | 4.94 µM | > 67.8 µM | – | < 0.01 µM | 13.7 µM | > 100 µM | 1.04 µM | > 100 | < 0.01 µM | – | – | – | – | – | – | – | – | – | –
13 | COc1cccc2c1C(=O)c1c(O)c3c(c(O)c1C2=O)C[C@@](O)(C(C)=O)C[C@@H]3OC1CC(N)C(O)C(C)O1 (stereo partly specified) | 8.07 µM [middle of 6 runs] | – | – | – | – | – | – | – | – | – | – | – | 0.0183 | – | 0.0136 | < 0.0127 | – | 0.0602 | 0.0161 | 0.0153
14 | CN1CCN(c2ccc3nc(-c4ccc(OCCCN5C(=O)c6cccc7cccc(c67)C5=O)cc4)[nH]c3c2)CC1 | – | 4.7 µM | 99.8 µM | 50.4 µM | 7.75 µM | – | 43.1 µM | 41.7 µM | 62.4 | – | – | 2.09 | 26.3 | 24.1 | 2.58 | – | 14.5 | 10 | – | 16.3
15 | CCP(=O)(CC)C(Cl)(Cl)C(=O)NC | > 100 µM | > 100 µM | – | – | > 100 µM | > 100 µM | > 100 µM | – | > 100 | > 100 µM | – | – | – | – | – | – | – | – | – | –
16 | CC(C)(C)CC(C)(C)Cc1ccc(OCCOCC[N+](C)(C)Cc2ccccc2)cc1 | 33.5 µM | 58.6 µM | 3.19 µM | 9.38 µM | – | 6.73 µM | 34.7 µM | 3 µM | 19.7 | 3.47 µM | 14.4 | 21.5 | 1.59 | 2.08 | – | 2.31 | 14.2 | 1.42 | 1.63 | 5.06
